Source: patent US9205073B2, “Method for treating virus infection using derivative of aniline” (CHINA MEDICAL UNIVERSITY, priority 2014, dated 2015)

Row | Compound | melting point
1 | CCOC(=O)C1=C(Nc2cccc(Cl)c2)OCC1=O | 159.5 °C
2 | CCOC(=O)C1=C(Nc2ccccc2)OCC1=O | 115 to 116 °C
3 | CCOC(=O)C1=C(Nc2cccc(O)c2)OCC1=O | 210 to 211 °C
4 | CCOC(=O)C1=C(Nc2cc(OC)cc(OC)c2)OCC1=O | 145.6 °C
